Test: In vitro metabolic stability in pooled mouse liver S9 fraction
Format: in vitro ADME
Details: male, ICR; for remaining at 1 h, 3 µM / half-life at 3 µM: pH 7.4, MLS9 1 mg/mL, 3 µM compound; for remaining at 1 h, 3 µM: cofactors NADPH, UDPGA, PAPS, GSH, 37 °C, read-out: % remaining after 60 min; for half-life at 3 µM: with cofactors, one-phase decay fit, read-out: in vitro t½ (estimated); for microsomal CLint at 3 µM: pH 7.4, MLS9, CLint,u = k/(fu,S9 × [S9]), read-out: CLint,u (unbound intrinsic clearance)
Procedure: Metabolic stability was assessed using pooled HLS9 and MLS9 fractions. The S9 fractions (20 mg/mL) were diluted to 1 mg/mL with 0.1 M potassium phosphate buffer (pH 7.4). Stock solutions of KB-1517 and KB-1518 (10 mM in DMSO) were diluted in 50% aqueous acetonitrile to prepare working solutions (120 µM). A Tris mix buffer containing 1 M Tris-HCl (pH 7.4), 10 mM MgCl2, and 125 µg/mL alamethicin was prepared. A combined cofactor solution was prepared in 0.1 M potassium phosphate buffer (pH 7.4): 10 mM NADPH, 5 mM UDPGA, 1 mM PAPS, and 25 mM GSH.
The incubation mixture (final volume 200 µL) contained: 125 µL of deionized water, 40 µL of Tris mix buffer, 10 µL of 20 mg protein/mL S9 fraction (final concentration 1 mg protein/mL), and 5 µL of the test compound working solution (final concentration 3 µM). The final concentrations of DMSO and acetonitrile were 0.03% and 1%, respectively. The mixture was pre-incubated at 37 °C for 5 min in a shaking water bath. The reaction was initiated by adding 20 µL of the combined cofactor solution (final concentrations: 1 mM NADPH, 0.5 mM UDPGA, 0.1 mM PAPS, 2.5 mM GSH). Control incubations were performed without the cofactor mixture (replaced with buffer) and at 0 min (quenched immediately after adding cofactors). Incubations were carried out at 37 °C for 0, 15, 30, and 60 min (for stability) or 60 min (for metabolite ID). Reactions were terminated by adding 200 µL of ice-cold acetonitrile containing IS (diclofenac).
Terminated samples were sonicated (5 min), vortexed (1500 rpm, 5 min), and centrifuged (3000 rpm, 20 min, 4 °C). An aliquot (150 µL) of the supernatant was transferred to a 96-well plate for LC-MS/MS analysis as described in Section 2.6.2.
Noncompartmental analysis (NCA) was performed using PKSolver to determine pharmacokinetic parameters from the plasma concentration-time data. Parameters included: maximum plasma concentration (Cmax), time to reach Cmax (tmax), terminal elimination half-life (t1/2), area under the plasma concentration-time curve from time zero to the last measurable concentration (AUClast), area under the plasma concentration-time curve extrapolated to infinity (AUCinf), total body clearance (CL), and volume of distribution at steady state (Vss). Oral bioavailability (F) was calculated as: F(%) = (AUCinf,PO/AUCinf,IV)× (DoseIV/DosePO)×100. Due to the anomalous profile of KB-1517, AUClast was used for its F calculation, and some parameters (t½, CL, Vss for IV; AUCinf for PO) could not be reliably determined (ND). The metabolic rate constant (k) was determined by fitting the in vitro metabolic stability data to a one-phase decay equation via nonlinear regression using GraphPad Prism (Version 10, GraphPad Software, Boston, MA, USA). The in vitro t1/2 was calculated from the equation t1/2 = ln(2)/k. Subsequently, the unbound intrinsic clearance (CLint,u) was calculated as follows: CLint,u = k/(fu,S9 × [S9]), where fu,S9 is the fraction unbound in the S9 incubation and [S9] is the S9 protein concentration.
The metabolic stability of KB-1517 and KB-1518 was evaluated by incubating the compounds (3 µM) with HLS9 and MLS9 fractions (1 mg/mL) in the presence of a comprehensive set of phase I and phase II cofactors (NADPH, UDPGA, PAPS, and GSH) for up to 60 min.

CN(C)CCn1c(=O)c2nc(-c3ccc(C(F)(F)F)cc3)oc2c2ccccc21 [KB-1517, 5-(2-(dimethylamino)ethyl)-2-(4-(trifluoromethyl)phenyl)oxazolo[4,5-c]quinolin-4(5H)-one]
remaining at 1 h, 3 µM: 67.2 ± 1%
half-life at 3 µM: 3.06 h
microsomal CLint at 3 µM: 25 µL/min/mg

CN(C)CCOc1nc2ccccc2c2oc(-c3ccc(C(F)(F)F)cc3)nc12 [KB-1518, N,N-dimethyl-2-((2-(4-(trifluoromethyl)phenyl)oxazolo[4,5-c]quinolin-4-yl)oxy)ethan-1-amine]
remaining at 1 h, 3 µM: 57.2 ± 1.3%
half-life at 3 µM: 1.24 h
microsomal CLint at 3 µM: 216 µL/min/mg

From paper PMC12473689, “Drug Metabolism and Pharmacokinetics of Oxazolo[4,5-c]quinoline Analogs as Novel Interleukin-33 Inhibitors” (Pharmaceutics, 2025)
